Assay results from US10723764B2, “Anti-microbial peptides and methods of use thereof” (priority 2011, dated 2020).
Values after ≈ are worked out from the molar mass of the structure shown. Where two headings read alike, the source gives them in different places. Where a SMILES comes first, the peptide text is derived from it. [ ]: non-standard residue; d: D form. Phe(4-CF3) = N[C@@H](Cc1ccc(C(F)(F)F)cc1)C(=O)O; Bip = N[C@@H](Cc1ccc(-c2ccccc2)cc1)C(=O)O; 2Nal = N[C@@H](Cc1ccc2ccccc2c1)C(=O)O

Columns and labels:
[1] = tested on: methicillin-resistant Staphylococcus aureus USA300 LAC; conditions: for MIC (μM) SA: S. aureus USA300 LAC, Table 10; for S. aureus USA 300 MIC: Table 8
Protocol: This was done by modifying the standard microdilution antimicrobial assays (Wang, G. (2008) J. Biol. Chem., 283:32637-32643). Specifically, the bacterial wells with a high peptide concentration (e.g. 100 μM) are duplicated (e.g., two for antimicrobial assays and two for protease stability assays). As an illustration, chymotrypsin was applied to the duplicated wells at a peptide:protease molar ratio of 25:1.

A. baumannii B2367-12 = assay type: cell-based, Acinetobacter baumanii
Protocol: (§1) The antibacterial activities of the peptides were determined using the standard broth microdilution method (Mishra et al. (2012) J. Am. Chem. Soc., 134:12426-12429; Wang et al. (2005) Biol. Chem., 280:5803-5811). Briefly, the bacterial culture was treated with a series of peptide solutions, each with two-fold dilution. After overnight incubation at 37° C., the microplate was read on a ChroMate® 4300 Microplate Reader at 630 nm (GMI, Ramsey, Minn.).

E. faecium ATCC51559 = assay type: cell-based, Enterococcus faecium
Protocol: as §1

human erythrocytes = conditions: for HL50 (μM), peptide concentration that causes 50% lysis of human erythrocytes: Table 10; for hemolysis: human, 160 µM
Protocol: (§2) Peptide hemolysis was assayed using an established protocol (Malmsten et al. (2011) PLoS One 6:e16400). In brief, fresh blood, obtained from the UNMC Blood Bank, was washed three times with PBS buffer and made into a 5% solution. To 90 μL of this solution, 10 μL of a peptide solution was added and incubated at 37° C. for one hour. After centrifugation at 13,000 rpm, aliquots of the supernatant were transferred to a fresh 96 well microplate. The absorbance of the solutions was measured at 545 nm to detect the amount of hemoglobin released. The percent lysis was calculated by assuming 100% release when treated with 2% Triton X-100 and no lysis (0%) when treated with PBS buffer. HL50 was the peptide concentration that caused 50% lysis of human erythrocytes. The cell selectivity (CS) indexes were calculated as the ratio of HL50 to the MIC of the peptide against S. aureus USA300.
(§3) The hemolytic effects of the six peptides were also compared on human red blood cells (hRBC) using an established protocol (Malmsten et al. (2011) PLoS One 6:e16400). […] A high TI indicates good cell selectivity.
(§4) Peptide hemolysis was assayed using an established protocol (Menousek et al. (2012) Int. J. Antimicrob. Agents 39:402-406; Malmsten et al. (2011) PLoS One 6:e16400). Briefly, blood cells were washed three times with phosphate-buffered saline (PBS) and were diluted to a 5% solution. Following peptide treatment, incubation at 37° C. for 1 hour and centrifugation at 13,000 rpm, aliquots of the supernatant were transferred to a fresh 96-well microplate. To assess peptide cytotoxicity, the amount of hemoglobin released was measured at 545 nm. Percent lysis was calculated by assuming 100% release when human blood cells were treated with 2% Triton X-100 and 0% release when they were incubated with PBS buffer.

[2] = tested on: Pseudomonas aeruginosa PAO1; assay type: cell-based
Protocol: The bacterial strains used in the study are Bacillus subtilis 168, methicillin-resistant Staphylococcus aureus USA300 LAC (Gram-positive), Escherichia coli K12, and Pseudomonas aeruginosa PAO1 (Gram negative). The antibacterial activities of the peptides were determined using the standard broth microdilution method (Wang et al. (2005) J. Biol. Chem., 280:5803-5811). In brief, the bacterial culture (90 μL) was treated with a series of peptide solutions (10 μL), each with two-fold dilution. After overnight incubation at 37° C., the microplate was read on a ChroMate® 4300 Microplate Reader at 630 nm (GMI, Ramsey, Minn.).
For the initial screen, antimicrobial activities of these peptides against S. aureus and E. coli were evaluated using the standard broth microdilution protocol (Wang, G. (2008) J. Biol. Chem., 283:32637-43). […] Subsequently, the in vitro activity of these six peptides was evaluated against Bacillus subtilis and Pseudomonas aeruginosa (Table 6). […] While maculatin 1.3 is active against two Gram-positive but not two Gram-negative bacterial strains, DASamP1 is species-specific since it active only against S. aureus. The finding that ascaphin-8, […], and piscidin 1 are wide-spectrum AMPs agrees with the literature (Apponyi et al. (2004) Peptides 25:1035-1054; Conlon et al. (2004) Biochem. Biophys. Res. Commun., 320:170-175; Silphaduang et al. (2001) Nature 414:268-269; Souza et al. (2005) J. Immunol., 186:6585-6596). For lycotoxin I, it was previously found to active against Gram-negative E. coli and yeast (Yan et al. (1998) J. Biol. Chem., 273:2059-2066).
as §1

E. cloacae B2366-12 = assay type: cell-based
Protocol: as §1

ESKAPE pathogens = assay type: cell-based; conditions: E. coli, A. baumannii, and E. cloacae
Protocol: as §1
A rational design was conducted on the basis of the 3D structure of GF-17d3. […] The noncoherent packing of the GF-17d3 side chains caused a hydrophobic defect in the structure (FIGS. 8C and 8D, arrow), leading to reduced hydrophobicity. Accordingly, it was hypothesized that the antimicrobial activity of this peptide 17F2 (sequence GX1KRLVQRLKDX2LRNLV (SEQ ID NO: 58), Table 9) could be enhanced by filling in the hydrophobic cavity (FIG. 8D, arrow) with a larger hydrophobic side chain. The antimicrobial activities of these peptide analogues were evaluated using the standard microdilution assays (Mishra et al. (2012) J. Am. Chem. Soc., 134:12426-12429), and the minimal inhibitory concentrations (MIC) against a panel of the ESKAPE pathogens are provided in Table 10. […] To compare the two sites, these two substitutions at positions X1 and X2 were swapped to obtain 17Naph-mF. […] In addition, biphenylalanines were incorporated at position X1 alone or at both X1 and X2 of the 17F2 template. […] The killing abilities of these peptides are essentially proportional to their MIC values as well as retention times (a measure of hydrophobicity) on a reverse-phase HPLC column (Mishra et al. (2012) J. Am. Chem. Soc., 134:12426-12429).

Escherichia coli K12 = conditions: Table 8
[3] = human, hemolysis, at 160 μM, human red blood cells
Protocol: as §2, §3, §4

CC(C)C[C@H](NC(=O)[C@H](CC(N)=O)NC(=O)[C@H](CCCNC(=N)N)NC(=O)[C@@H](CC(C)C)NC(=O)[C@H](Cc1ccc2ccccc2c1)NC(=O)[C@H](CC(=O)O)NC(=O)[C@H](CCCCN)NC(=O)[C@@H](CC(C)C)NC(=O)[C@H](CCCNC(=N)N)NC(=O)[C@H](CCC(N)=O)NC(=O)[C@@H](NC(=O)[C@@H](CC(C)C)NC(=O)[C@H](CCCNC(=N)N)NC(=O)[C@H](CCCCN)NC(=O)[C@H](Cc1ccccc1)NC(=O)CN)C(C)C)C(=O)N[C@H](C(N)=O)C(C)C [17F-Naph, GX1KRLVQRLKDX2LRNLV] (H-GFKR[dL]VQR[dL]KD[2Nal][dL]RNLV-NH2)
MIC (μM) SA [1]: 25 µM (≈ 53.8 µg/mL)
MIC (μM) AB (A. baumannii B2367-12): 3.1 µM (≈ 6.67 µg/mL)
MIC (μM) EF (E. faecium ATCC51559; ATCC51559): 3.1 µM (≈ 6.67 µg/mL)
HL50 (μM), peptide concentration that causes 50% lysis of human erythrocytes (human erythrocytes): >900 µM
MIC (μM) PA [2]: 12.5 µM (≈ 26.9 µg/mL)
MIC (μM) EC (E. cloacae B2366-12; E. cloacae B2366-12): 12.5 µM (≈ 26.9 µg/mL)

CC(C)C[C@H](NC(=O)[C@H](CC(N)=O)NC(=O)[C@H](CCCNC(=N)N)NC(=O)[C@@H](CC(C)C)NC(=O)[C@H](Cc1ccccc1)NC(=O)[C@H](CC(=O)O)NC(=O)[C@H](CCCCN)NC(=O)[C@@H](CC(C)C)NC(=O)[C@H](CCCNC(=N)N)NC(=O)[C@H](CCC(N)=O)NC(=O)[C@@H](NC(=O)[C@@H](CC(C)C)NC(=O)[C@H](CCCNC(=N)N)NC(=O)[C@H](CCCCN)NC(=O)[C@H](Cc1ccccc1)NC(=O)CN)C(C)C)C(=O)N[C@H](C(N)=O)C(C)C [A128A, GX1KRLVQRLKDX2LRNLV-amide] (H-GFKR[dL]VQR[dL]KDF[dL]RNLV-NH2)
MIC against E. coli, A. baumannii, and E. cloacae (ESKAPE pathogens): 6.2 to 25 µM
S. aureus USA 300 MIC [1]: > 160 µM
E. coli K12 MIC (Escherichia coli K12): 10 µM
MIC (μM) AB (A. baumannii B2367-12): 6.2 to 12.5 µM
hemolysis at 160 µM [3]: 3 to 5%
hemolysis (human erythrocytes): <3%
MIC (μM) EC (E. cloacae B2366-12; B2366-12): 25 µM (≈ 52.5 µg/mL)

CC(C)C[C@H](NC(=O)[C@H](CC(N)=O)NC(=O)[C@H](CCCNC(=N)N)NC(=O)[C@@H](CC(C)C)NC(=O)[C@H](Cc1ccc(C(F)(F)F)cc1)NC(=O)[C@H](CC(=O)O)NC(=O)[C@H](CCCCN)NC(=O)[C@@H](CC(C)C)NC(=O)[C@H](CCCNC(=N)N)NC(=O)[C@H](CCC(N)=O)NC(=O)[C@@H](NC(=O)[C@@H](CC(C)C)NC(=O)[C@H](CCCNC(=N)N)NC(=O)[C@H](CCCCN)NC(=O)[C@H](Cc1ccc2ccccc2c1)NC(=O)CN)C(C)C)C(=O)N[C@H](C(N)=O)C(C)C [17Naph-mF, GX1KRLVQRLKDX2LRNLV] (H-G[2Nal]KR[dL]VQR[dL]KD[Phe(4-CF3)][dL]RNLV-NH2)
MIC (μM) SA [1]: 6.2 µM (≈ 13.8 µg/mL)
MIC (μM) AB (A. baumannii B2367-12): 3.1 µM (≈ 6.88 µg/mL)
MIC (μM) EF (E. faecium ATCC51559; ATCC51559): 3.1 µM (≈ 6.88 µg/mL)
HL50 (μM), peptide concentration that causes 50% lysis of human erythrocytes (human erythrocytes): 950 µM
MIC (μM) PA [2]: 6.2 to 12.5 µM
MIC (μM) EC (E. cloacae B2366-12; E. cloacae B2366-12): 6.2 to 12.5 µM

CC(C)C[C@H](NC(=O)[C@H](CC(N)=O)NC(=O)[C@H](CCCNC(=N)N)NC(=O)[C@@H](CC(C)C)NC(=O)[C@H](Cc1ccccc1)NC(=O)[C@H](CC(=O)O)NC(=O)[C@H](CCCCN)NC(=O)[C@@H](CC(C)C)NC(=O)[C@H](CCCNC(=N)N)NC(=O)[C@H](CCC(N)=O)NC(=O)[C@@H](NC(=O)[C@@H](CC(C)C)NC(=O)[C@H](CCCNC(=N)N)NC(=O)[C@H](CCCCN)NC(=O)[C@H](Cc1ccc(-c2ccccc2)cc1)NC(=O)CN)C(C)C)C(=O)N[C@H](C(N)=O)C(C)C [C128A, GX1KRLVQRLKDX2LRNLV-amide] (H-G[Bip]KR[dL]VQR[dL]KDF[dL]RNLV-NH2)
MIC (μM) SA [1]: 12.5 µM (≈ 27.2 µg/mL)
S. aureus USA 300 MIC [1]: 40 µM
E. coli K12 MIC (Escherichia coli K12): 5 µM
MIC (μM) AB (A. baumannii B2367-12): 3.1 µM (≈ 6.75 µg/mL)
MIC (μM) EF (E. faecium ATCC51559; E. faecium ATCC51559): 12.5 µM (≈ 27.2 µg/mL)
hemolysis at 160 µM [3]: 3 to 5%
HL50 (μM), peptide concentration that causes 50% lysis of human erythrocytes (human erythrocytes): >900 µM
hemolysis (human erythrocytes): <5%
MIC (μM) PA [2]: 12.5 µM (≈ 27.2 µg/mL)
MIC (μM) EC (E. cloacae B2366-12; E. cloacae B2366-12): 12.5 µM (≈ 27.2 µg/mL)

CC(C)C[C@H](NC(=O)[C@H](CC(N)=O)NC(=O)[C@H](CCCNC(=N)N)NC(=O)[C@@H](CC(C)C)NC(=O)[C@H](Cc1ccc2ccccc2c1)NC(=O)[C@H](CC(=O)O)NC(=O)[C@H](CCCCN)NC(=O)[C@@H](CC(C)C)NC(=O)[C@H](CCCNC(=N)N)NC(=O)[C@H](CCC(N)=O)NC(=O)[C@@H](NC(=O)[C@@H](CC(C)C)NC(=O)[C@H](CCCNC(=N)N)NC(=O)[C@H](CCCCN)NC(=O)[C@H](Cc1ccc(C(F)(F)F)cc1)NC(=O)CN)C(C)C)C(=O)N[C@H](C(N)=O)C(C)C [17mF-Naph, GX1KRLVQRLKDX2LRNLV] (H-G[Phe(4-CF3)]KR[dL]VQR[dL]KD[2Nal][dL]RNLV-NH2)
MIC (μM) SA [1]: 6.2 µM (≈ 13.8 µg/mL)
MIC (μM) AB (A. baumannii B2367-12): 3.1 µM (≈ 6.88 µg/mL)
MIC (μM) EF (E. faecium ATCC51559; ATCC51559): 3.1 µM (≈ 6.88 µg/mL)
HL50 (μM), peptide concentration that causes 50% lysis of human erythrocytes (human erythrocytes): 500 µM
MIC (μM) PA [2]: 6.2 to 12.5 µM
MIC (μM) EC (E. cloacae B2366-12; B2366-12): 6.2 µM (≈ 13.8 µg/mL)
